Results from PMC3880142 (ACS chemical biology, 2013).

Target: T1, CadD (Leptospira interrogans, UniProt Q72V44)
T1 sequence (Q72V44 1-442): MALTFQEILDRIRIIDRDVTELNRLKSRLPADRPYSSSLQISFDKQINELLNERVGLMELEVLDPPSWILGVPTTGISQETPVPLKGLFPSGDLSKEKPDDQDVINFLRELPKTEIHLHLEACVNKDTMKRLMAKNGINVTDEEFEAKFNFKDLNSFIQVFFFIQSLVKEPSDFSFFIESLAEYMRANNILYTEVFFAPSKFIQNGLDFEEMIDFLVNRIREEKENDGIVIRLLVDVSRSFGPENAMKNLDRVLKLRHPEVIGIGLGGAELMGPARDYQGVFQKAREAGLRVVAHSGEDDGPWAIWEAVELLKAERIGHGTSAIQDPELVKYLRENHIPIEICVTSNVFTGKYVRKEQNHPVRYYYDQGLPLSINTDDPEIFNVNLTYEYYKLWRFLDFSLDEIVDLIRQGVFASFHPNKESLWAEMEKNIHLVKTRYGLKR
Assay: UV spectrophotometric cAMP deamination at […] nm, inhibition
Type: biochemical

Q: Which Ki does the source give for O=P1(O)OC[C@H]2O[C@@H](n3cnc4cncnc43)[C@H](O)[C@@H]2O1 [cPuMP] here?
A: 1300 ± 500 nM
